# ChEMBL document CHEMBL1201862, “PubChem BioAssay data set” (2004)
#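 96-well plates; 48 h exposure; 5 concentrations. Endpoints by linear interpolation between flanking doses. Not reached: highest tested concentration assigned. Abbreviation: GI50, concentration required for 50% inhibition of growth.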 Activity calls are given as the source filed them. Rule as the data show it: active = GI50 up to about 1.1 µM and inactive = higher.
# Assays:
# Assay in all cases: inhibition of tumour cell growth, NCI panel, 48 h
# A549 = tested on: A549
# ACHN = tested on: ACHN
# HCT-15 = tested on: HCT-15
# K562 = tested on: K562
# M14 = tested on: M14
# Malme-3M = tested on: Malme-3M
# NCI-H226 = tested on: NCI-H226
# NCI-H522 = tested on: NCI-H522
# OVCAR-3 = tested on: OVCAR-3
# OVCAR-5 = tested on: OVCAR-5
# OVCAR-8 = tested on: OVCAR-8
# SF-268 = tested on: SF-268
# SN12C = tested on: SN12C
# SNB-75 = tested on: SNB-75
# SW-620 = tested on: SW-620
# TK-10 = tested on: TK-10
# U-251 = tested on: U-251
# UACC-257 = tested on: UACC-257
# MOLT-4 = tested on: MOLT-4
Compound,GI50 (A549),GI50 (ACHN),GI50 (HCT-15),GI50 (K562),GI50 (M14),GI50 (Malme-3M),GI50 (NCI-H226),GI50 (NCI-H522),GI50 (OVCAR-3),GI50 (OVCAR-5),GI50 (OVCAR-8),GI50 (SF-268),GI50 (SN12C),GI50 (SNB-75),GI50 (SW-620),GI50 (TK-10),GI50 (U-251),GI50 (UACC-257),GI50 (MOLT-4)
CC(=O)n1c(=O)c2cc3c(=O)n(-c4cccc(C#N)c4)c(=O)c3cc2c1=O,> 100 µM (inactive),> 100 µM (inactive),> 100 µM,> 100 µM (inactive),> 100 µM (inactive),> 100 µM (inactive),> 100 µM (inactive),> 100 µM (inactive),> 100 µM (inactive),> 100 µM (inactive),> 100 µM (inactive),> 100 µM (inactive),> 100 µM (inactive),23.7 µM (inactive),> 100 µM (inactive),> 100 µM (inactive),24.2 µM (inactive),> 100 µM (inactive),–
O=C(O)CCSC(=O)Nc1ccc([N+](=O)[O-])cc1,> 100 µM (inactive),> 100 µM (inactive),> 100 µM,> 100 µM (inactive),> 100 µM (inactive),–,–,–,> 100 µM (inactive),–,> 100 µM (inactive),> 100 µM (inactive),> 100 µM (inactive),19.4 µM (inactive),> 100 µM (inactive),> 100 µM (inactive),> 100 µM (inactive),> 100 µM (inactive),> 100 µM (inactive)
Cc1nn(-c2ccccc2)c(-c2ccccc2[N+](=O)[O-])c1CC#N,> 100 µM (inactive),> 100 µM (inactive),> 100 µM,59.2 µM (inactive),> 100 µM (inactive),29.4 µM (inactive),–,22.2 µM (inactive),62.1 µM (inactive),> 100 µM (inactive),> 100 µM (inactive),> 100 µM (inactive),> 100 µM (inactive),> 100 µM (inactive),> 10 µM (inactive),> 100 µM (inactive),–,> 100 µM (inactive),67.3 µM (inactive)
CCOP(=O)(OCC)C1CCCOC1=O (stereo not given),> 100 µM (inactive),> 100 µM (inactive),> 100 µM,> 100 µM (inactive),> 100 µM (inactive),> 100 µM (inactive),–,–,> 100 µM (inactive),> 100 µM (inactive),> 100 µM (inactive),> 100 µM (inactive),> 100 µM (inactive),> 100 µM (inactive),> 100 µM (inactive),> 100 µM (inactive),> 100 µM (inactive),> 100 µM (inactive),> 100 µM (inactive)
CC(=O)c1ccc(N2CCN(C3=CC(=O)c4c(O)ccc(O)c4C3=O)CC2)cc1,19 µM (inactive),–,5.41 µM,37.5 µM (inactive),40.7 µM (inactive),4.36 µM (inactive),–,–,39.9 µM (inactive),> 100 µM (inactive),13.1 µM (inactive),33 µM (inactive),–,24.2 µM (inactive),35.6 µM (inactive),61 µM (inactive),16.2 µM (inactive),> 100 µM (inactive),5.38 µM (inactive)
OCCNCO,> 100 µM (inactive),> 100 µM (inactive),> 100 µM,> 100 µM (inactive),> 100 µM (inactive),–,> 100 µM (inactive),> 100 µM (inactive),> 100 µM (inactive),> 100 µM (inactive),> 100 µM (inactive),> 100 µM (inactive),> 100 µM (inactive),> 100 µM (inactive),> 100 µM (inactive),> 100 µM (inactive),> 100 µM (inactive),> 100 µM (inactive),> 100 µM (inactive)
CC1OC(OCC2COC(O)(Oc3c(-c4ccc(O)c(O)c4)oc4cc(O)cc(O)c4c3=O)C(O)C2O)C(O)C(O)C1O (stereo not given),> 100 µM (inactive),> 100 µM (inactive),> 100 µM,> 100 µM (inactive),> 100 µM (inactive),> 100 µM (inactive),> 100 µM (inactive),–,> 100 µM (inactive),> 100 µM (inactive),> 100 µM (inactive),> 100 µM (inactive),> 100 µM (inactive),> 100 µM (inactive),> 100 µM (inactive),> 100 µM (inactive),> 100 µM (inactive),> 100 µM (inactive),> 100 µM (inactive)
C1=CC(=P(c2ccccc2)(c2ccccc2)c2ccccc2)C=C1,14.1 µM (inactive),14.2 µM (inactive),29.7 µM,3.45 µM (inactive),8.22 µM (inactive),4.75 µM (inactive),–,3.13 µM (inactive),10.7 µM (inactive),14.7 µM (inactive),4.95 µM (inactive),10.3 µM (inactive),10.3 µM (inactive),3.37 µM (inactive),16.1 µM (inactive),20.7 µM (inactive),–,7.48 µM (inactive),5.4 µM (inactive)
